Results reported in ChEMBL document CHEMBL3102798, “Stapled Vasoactive Intestinal Peptide (VIP) Derivatives Improve VPAC2 Agonism and Glucose-Dependent Insulin Secretion” (ACS Med Chem Lett, 2013).
pEC50: −log10 of the molar value. Numbered stars: 1 amine (or outer) side, 2 acyl side, 3 side chain; on linkers, the order of the positions; unused ones are H or OH. Bridge positions count the residues as written; N and C are the ends. Square brackets hold non-standard residues; d marks the D form. Peptide text beside a SMILES is read from it. X1 = C[C@@](CCCCC=[*:3])(N[*:1])C(=O)[*:2]; S5 = C=CCCC[C@](C)(N)C(=O)O

How the values were obtained:
[1] = biological target: T1, Vasoactive intestinal polypeptide receptor 2 (Homo sapiens, UniProt P41587); assay: Agonist activity at human VPAC2 expressed in CHO Flp-in cells assessed as accumulation of cAMP after 30 mins by TR-FRET assay; type: functional, cell-based
T1 sequence (P41587 whole entry): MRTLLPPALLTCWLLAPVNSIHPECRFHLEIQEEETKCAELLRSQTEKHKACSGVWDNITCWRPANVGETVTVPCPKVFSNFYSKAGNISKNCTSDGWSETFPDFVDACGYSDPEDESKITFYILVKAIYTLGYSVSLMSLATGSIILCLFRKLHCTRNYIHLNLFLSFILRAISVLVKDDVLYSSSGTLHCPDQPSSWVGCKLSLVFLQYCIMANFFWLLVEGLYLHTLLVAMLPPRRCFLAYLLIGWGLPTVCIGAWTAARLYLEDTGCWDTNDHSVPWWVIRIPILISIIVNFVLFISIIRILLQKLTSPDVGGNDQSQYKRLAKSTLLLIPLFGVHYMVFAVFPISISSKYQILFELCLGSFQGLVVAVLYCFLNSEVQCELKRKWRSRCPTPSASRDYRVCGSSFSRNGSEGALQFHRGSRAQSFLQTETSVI

[2] = Stability of the compound in phosphate buffer assessed as compound remaining at pH 7.4 after 15 mins by LC-MS-MS analysis in presence of trypsin; type: ADME; settings: phosphate buffer with trypsin, read-out: Stability
[3] = Apparent passive permeability across apical to basolateral side in human Caco2 cells at 10 uM after 30 to 60 mins by LC/MS analysis; type: ADME, cell-based; settings: Caco-2

| Compound | pEC50 [1] | remaining at 0.25 h [2] [%] | Papp A→B at 10 µM [3] [×10⁻⁶ cm/s] |
| --- | --- | --- | --- |
| C=CCCC[C@](C)(NC(=O)[C@H](CCC(N)=O)NC(=O)[C@H](CCCCN)NC(=O)[C@H](CCCN=C(N)N)NC(=O)[C@](C)(CCCC=C)NC(=O)[C@H](CCCN=C(N)N)NC(=O)[C@@H](NC(=O)[C@H](Cc1ccc(O)cc1)NC(=O)[C@H](CC(N)=O)NC(=O)[C@H](CC(=O)O)NC(=O)[C@@H](NC(=O)[C@H](Cc1ccccc1)NC(=O)[C@@H](NC(=O)[C@H](C)NC(=O)[C@H](CC(=O)O)NC(=O)[C@H](CO)NC(=O)[C@@H](N)Cc1cnc[nH]1)C(C)C)[C@@H](C)O)[C@@H](C)O)C(=O)N[C@@H](C)C(=O)N[C@H](C(=O)N[C@@H](CCCCN)C(=O)N[C@@H](CCCCN)C(=O)N[C@@H](Cc1ccc(O)cc1)C(=O)N[C@@H](CC(C)C)C(=O)N[C@@H](CC(N)=O)C(=O)N[C@@H](CO)C(=O)N[C@H](C(=O)N[C@@H](CC(C)C)C(=O)N[C@@H](CC(N)=O)C(=O)NCC(=O)N[C@@H](CCCCN)C(=O)O)[C@@H](C)CC)C(C)C | 8.86 | 0.7 | < 0.1 |
| C=CCCC[C@](C)(NC(=O)[C@H](CC(C)C)NC(=O)[C@@H](NC(=O)[C@H](CO)NC(=O)[C@](C)(CCCC=C)NC(=O)[C@H](CC(C)C)NC(=O)[C@H](Cc1ccc(O)cc1)NC(=O)[C@H](CCCCN)NC(=O)[C@H](CCCCN)NC(=O)[C@@H](NC(=O)[C@H](C)NC(=O)[C@@H](NC(=O)[C@H](CCC(N)=O)NC(=O)[C@H](CCCCN)NC(=O)[C@H](CCCNC(=N)N)NC(=O)[C@H](CC(C)C)NC(=O)[C@H](CCCNC(=N)N)NC(=O)[C@@H](NC(=O)[C@H](Cc1ccc(O)cc1)NC(=O)[C@H](CC(N)=O)NC(=O)[C@H](CC(=O)O)NC(=O)[C@@H](NC(=O)[C@H](Cc1ccccc1)NC(=O)[C@@H](NC(=O)[C@H](C)NC(=O)[C@H](CC(=O)O)NC(=O)[C@H](CO)NC(=O)[C@@H](N)Cc1cnc[nH]1)C(C)C)[C@@H](C)O)[C@@H](C)O)[C@@H](C)CC)C(C)C)[C@@H](C)CC)C(=O)NCC(=O)N[C@@H](CCCCN)C(=O)O (H-HSDAVFTDNYTRLRKQIAVKKYL[S5]SIL[S5]GK-OH) | 9.68 | – | – |
| CC[C@H](C)[C@H](NC(=O)[C@H](CCC(N)=O)NC(=O)[C@H](CCCCN)NC(=O)[C@H](CCCNC(=N)N)NC(=O)[C@H](CC(C)C)NC(=O)[C@H](CCCNC(=N)N)NC(=O)[C@@H](NC(=O)[C@H](Cc1ccc(O)cc1)NC(=O)[C@H](CC(N)=O)NC(=O)[C@H](CC(=O)O)NC(=O)[C@@H](NC(=O)[C@H](Cc1ccccc1)NC(=O)[C@@H](NC(=O)[C@H](C)NC(=O)[C@H](CC(=O)O)NC(=O)[C@H](CO)NC(=O)[C@@H](N)Cc1cnc[nH]1)C(C)C)[C@@H](C)O)[C@@H](C)O)C(=O)N[C@@H](C)C(=O)N[C@H](C(=O)N[C@@H](CCCCN)C(=O)N[C@@H](CCCCN)C(=O)N[C@@H](Cc1ccc(O)cc1)C(=O)N[C@@H](CC(C)C)C(=O)N[C@@]1(C)CCCC/C=C\CCCC[C@@](C)(C(=O)NCC(=O)N[C@@H](CCCCN)C(=O)O)NC(=O)[C@H](CC(C)C)NC(=O)[C@H]([C@@H](C)CC)NC(=O)[C@H](CO)NC1=O)C(C)C (H-HSDAVFTDNYTRLRKQIAVKKYL[X1]SIL[X1]GK-OH; staple (Z) 24-28) | 9.41 | – | – |
| C=CCCC[C@](C)(NC(=O)[C@H](CCCCN)NC(=O)[C@@H](NC(=O)[C@H](C)NC(=O)[C@@H](NC(=O)[C@H](CCC(N)=O)NC(=O)[C@H](CCCCN)NC(=O)[C@H](CCCN=C(N)N)NC(=O)[C@H](CC(C)C)NC(=O)[C@H](CCCN=C(N)N)NC(=O)[C@@H](NC(=O)[C@H](Cc1ccc(O)cc1)NC(=O)[C@H](CC(N)=O)NC(=O)[C@H](CC(=O)O)NC(=O)[C@@H](NC(=O)[C@H](Cc1ccccc1)NC(=O)[C@@H](NC(=O)[C@H](C)NC(=O)[C@H](CC(=O)O)NC(=O)[C@H](CO)NC(=O)[C@@H](N)Cc1cnc[nH]1)C(C)C)[C@@H](C)O)[C@@H](C)O)[C@@H](C)CC)C(C)C)C(=O)N[C@@H](Cc1ccc(O)cc1)C(=O)N[C@@H](CC(C)C)C(=O)N[C@@H](CC(N)=O)C(=O)N[C@@](C)(CCCC=C)C(=O)N[C@H](C(=O)N[C@@H](CC(C)C)C(=O)N[C@@H](CC(N)=O)C(=O)NCC(=O)N[C@@H](CCCCN)C(=O)O)[C@@H](C)CC (H-HSDAVFTDNYTRLRKQIAVK[S5]YLN[S5]ILNGK-OH) | 8.42 | – | – |
| CC[C@H](C)[C@H](NC(=O)[C@H](CO)NC(=O)[C@H](CC(N)=O)NC(=O)[C@H](CC(C)C)NC(=O)[C@H](Cc1ccc(O)cc1)NC(=O)[C@]1(C)CCCC/C=C\CCCC[C@](C)(NC(=O)[C@H](CCC(N)=O)NC(=O)[C@H](CCCCN)NC(=O)[C@H](CCCNC(=N)N)NC(=O)[C@H](CC(C)C)NC(=O)[C@H](CCCNC(=N)N)NC(=O)[C@@H](NC(=O)[C@H](Cc2ccc(O)cc2)NC(=O)[C@H](CC(N)=O)NC(=O)[C@H](CC(=O)O)NC(=O)[C@@H](NC(=O)[C@H](Cc2ccccc2)NC(=O)[C@@H](NC(=O)[C@H](C)NC(=O)[C@H](CC(=O)O)NC(=O)[C@H](CO)NC(=O)[C@@H](N)Cc2cnc[nH]2)C(C)C)[C@@H](C)O)[C@@H](C)O)C(=O)N[C@@H](C)C(=O)N[C@@H](C(C)C)C(=O)N[C@@H](CCCCN)C(=O)N1)C(=O)N[C@@H](CC(C)C)C(=O)N[C@@H](CC(N)=O)C(=O)NCC(=O)N[C@@H](CCCCN)C(=O)O (H-HSDAVFTDNYTRLRKQ[X1]AVK[X1]YLNSILNGK-OH; staple (Z) 17-21) | 9.48 | – | – |
| H-HSDAVFTDNYTRERKQKAVKKYLNSILNGK-OH | 8.18 | – | – |

Continued, values first:

| pEC50 [1] | remaining at 0.25 h [2] [%] | Papp A→B at 10 µM [3] [×10⁻⁶ cm/s] | Compound |
| --- | --- | --- | --- |
| 8.94 | – | – | CC[C@H](C)[C@H](NC(=O)[C@H](CO)NC(=O)[C@H](CC(N)=O)NC(=O)[C@H](CC(C)C)NC(=O)[C@H](Cc1ccc(O)cc1)NC(=O)[C@H](CCCCN)NC(=O)[C@H](CCCCN)NC(=O)[C@@H](NC(=O)[C@H](C)NC(=O)[C@@H]1CCCCNC(=O)CC[C@H](NC(=O)[C@H](CCCN=C(N)N)NC(=O)[C@@H](NC(=O)[C@H](Cc2ccc(O)cc2)NC(=O)[C@H](CC(N)=O)NC(=O)[C@H](CC(=O)O)NC(=O)[C@@H](NC(=O)[C@H](Cc2ccccc2)NC(=O)[C@@H](NC(=O)[C@H](C)NC(=O)[C@H](CC(=O)O)NC(=O)[C@H](CO)NC(=O)[C@@H](N)Cc2cnc[nH]2)C(C)C)[C@@H](C)O)[C@@H](C)O)C(=O)N[C@@H](CCCN=C(N)N)C(=O)N[C@@H](CCCCN)C(=O)N[C@@H](CCC(N)=O)C(=O)N1)C(C)C)C(=O)N[C@@H](CC(C)C)C(=O)N[C@@H](CC(N)=O)C(=O)NCC(=O)N[C@@H](CCCCN)C(=O)O (H-HSDAVFTDNYTRERKQKAVKKYLNSILNGK-OH; lactam 13-17) |
| 9.96 | – | – | CC[C@H](C)[C@H](NC(=O)[C@H](CCC(N)=O)NC(=O)[C@H](CCCCN)NC(=O)[C@H](CCCNC(=N)N)NC(=O)[C@H](CC(C)C)NC(=O)[C@H](CCCNC(=N)N)NC(=O)[C@@H](NC(=O)[C@H](Cc1ccc(O)cc1)NC(=O)[C@H](CC(N)=O)NC(=O)[C@H](CC(=O)O)NC(=O)[C@@H](NC(=O)[C@H](Cc1ccccc1)NC(=O)[C@@H](NC(=O)[C@H](C)NC(=O)[C@H](CC(=O)O)NC(=O)[C@H](CO)NC(=O)[C@@H](N)Cc1cnc[nH]1)C(C)C)[C@@H](C)O)[C@@H](C)O)C(=O)N[C@@H](C)C(=O)N[C@H](C(=O)N[C@@H](CCCCN)C(=O)N[C@H]1CCC(=O)NCCCC[C@@H](C(=O)N[C@H](C(=O)N[C@@H](CC(C)C)C(=O)N[C@@H](CC(N)=O)C(=O)NCC(=O)N[C@@H](CCCCN)C(=O)O)[C@@H](C)CC)NC(=O)[C@H](CC(N)=O)NC(=O)[C@H](CC(C)C)NC(=O)[C@H](Cc2ccc(O)cc2)NC1=O)C(C)C (H-HSDAVFTDNYTRLRKQIAVKEYLNKILNGK-OH; lactam 21-25) |
| 8.82 | – | – | CC[C@H](C)[C@H](NC(=O)[C@H](CCC(N)=O)NC(=O)[C@H](CCCCN)NC(=O)[C@H](CCCNC(=N)N)NC(=O)[C@H](CC(C)C)NC(=O)[C@H](CCCNC(=N)N)NC(=O)[C@@H](NC(=O)[C@H](Cc1ccc(O)cc1)NC(=O)[C@H](CC(N)=O)NC(=O)[C@H](CC(=O)O)NC(=O)[C@@H](NC(=O)[C@H](Cc1ccccc1)NC(=O)[C@@H](NC(=O)[C@H](C)NC(=O)[C@H](CC(=O)O)NC(=O)[C@H](CO)NC(=O)[C@@H](N)Cc1cnc[nH]1)C(C)C)[C@@H](C)O)[C@@H](C)O)C(=O)N[C@@H](C)C(=O)N[C@H](C(=O)N[C@@H](CCCCN)C(=O)N[C@@]1(C)CCCC/C=C\CCCC[C@@](C)(C(=O)N[C@H](C(=O)N[C@@H](CC(C)C)C(=O)N[C@@H](CC(N)=O)C(=O)NCC(=O)N[C@@H](CCCCN)C(=O)O)[C@@H](C)CC)NC(=O)[C@H](CC(N)=O)NC(=O)[C@H](CC(C)C)NC(=O)[C@H](Cc2ccc(O)cc2)NC1=O)C(C)C (H-HSDAVFTDNYTRLRKQIAVK[X1]YLN[X1]ILNGK-OH; staple (Z) 21-25) |
| 8.83 | – | – | C=CCCC[C@](C)(NC(=O)[C@H](CCC(N)=O)NC(=O)[C@H](CCCCN)NC(=O)[C@H](CCCN=C(N)N)NC(=O)[C@H](CC(C)C)NC(=O)[C@H](CCCN=C(N)N)NC(=O)[C@@H](NC(=O)[C@H](Cc1ccc(O)cc1)NC(=O)[C@H](CC(N)=O)NC(=O)[C@H](CC(=O)O)NC(=O)[C@@H](NC(=O)[C@H](Cc1ccccc1)NC(=O)[C@@H](NC(=O)[C@H](C)NC(=O)[C@H](CC(=O)O)NC(=O)[C@H](CO)NC(=O)[C@@H](N)Cc1cnc[nH]1)C(C)C)[C@@H](C)O)[C@@H](C)O)C(=O)N[C@@H](C)C(=O)N[C@H](C(=O)N[C@@H](CCCCN)C(=O)N[C@@](C)(CCCC=C)C(=O)N[C@@H](Cc1ccc(O)cc1)C(=O)N[C@@H](CC(C)C)C(=O)N[C@@H](CC(N)=O)C(=O)N[C@@H](CO)C(=O)N[C@H](C(=O)N[C@@H](CC(C)C)C(=O)N[C@@H](CC(N)=O)C(=O)NCC(=O)N[C@@H](CCCCN)C(=O)O)[C@@H](C)CC)C(C)C (H-HSDAVFTDNYTRLRKQ[S5]AVK[S5]YLNSILNGK-OH) |
| 9.68 | – | – | H-HSDAVFTDNYTRLRKQIAVKEYLNKILNGK-OH |
| 9.85 | 0.3 | < 0.1 | H-HSDAVFTDNYTRLRKQIAVKKYLNSILNGK-OH |
